What was measured:
[1] = Example 1A: residual ratio of Compound A1 in buffer solutions stored at 5° C.; assay type: physicochemical; details: for Residual ratio (%): 0.1 mg/mL
Description: Compound A1 was dissolved in each of the buffer solutions so that a concentration was 0.1 mg/mL. Each of these solutions was dispensed into a glass vial and stored at 5° C. After the storage, a residual ratio was calculated according to a test method described below.
(§1) Test method: In the solution after the storage, the residual ratio was analyzed according to a normal method using a liquid chromatography apparatus Prominence (manufactured by Shimadzu Corporation) and an ultraviolet absorptiometer (measurement wavelength: 254 nm, Prominence (manufactured by Shimadzu Corporation)). At this time, SUMIPAX ODS (3 mm×150 mm, 5 μm, manufactured by SCAS) was used as a column.
The residual ratio (%) of Compound A1 during each storage period at 5° C. was calculated as follows.
Residual ratio (%) of Compound A1 during each storage period=peak area of Compound A1 in sample solution/sum of peak area of sample solution×100

[2] = Example 3: storage stability of formulations at 5° C., 15° C. and 25° C.; assay type: physicochemical
Description: Compound A1 weighed so as to have the composition shown in Table 7 below and each of the buffer solutions were dissolved in water for injection to obtain a uniform solution. These solutions were filled in glass ampoules and sealed. Each pH in Example 3 was measured during each storage period using a pH meter HM-30R (manufactured by DKK-TOA CORPORATION).
The residual ratio of Compound A1 and the production of each of the decomposition products at 5° C., 15° C., and 25° C. were evaluated according to a test method described below.
Test method: In the solution after the storage, the residual ratio was analyzed according to a normal method using a liquid chromatography apparatus (ACQUITY UPLC H-Class; measurement wavelength: 210 nm). At this time, XSELECT CSH C18 (2.1 mm×100 mm, 3.5 μm, manufactured by Waters Corporation) was used as a column.
Calculation for obtaining the residual ratio (%) of Compound A1 and each of the decomposition products (%) during each storage period is as follows.
Residual ratio (%) of Compound A1=peak area of Compound A1 in sample solution/sum of peak area of sample solution×100
Each of decomposition products (%)=peak area of each of decomposition products in sample solution/sum of peak area of sample solution×100

[3] = Example 4A: residual ratio and reaction rate constant after storage at 60° C.; assay type: physicochemical; details: for Reaction rate constant at 60° C. / Residual ratio (%): 0.1 mg/mL
Description: Compound A1 was dissolved in each of the buffer solutions shown in Table 10 so that a concentration was 0.1 mg/mL. Each of these solutions was dispensed into a glass vial and stored at 60° C. After the storage, a residual ratio was calculated according to a test method described below.
as §1
The calculation for obtaining the residual ratio (%) of Compound A1 during each storage period is as follows.
Residual ratio (%) of Compound A1 during each storage period=peak area of Compound A1 in sample solution/peak area of Compound A1 in standard solution×100
Here, “Compound A1 in standard solution” refers to a solution obtained by dissolving Compound A1 in each of the buffer solutions shown in Table 10 so that a concentration was 0.1 mg/mL, and then storing the solution at 5° C. It was clear from the results of Example 1 that the solution of Compound A1 was stable when being stored at 5° C., and thus, the solution was used as the standard solution.
The reaction rate constant at 60° C. was calculated using the obtained residual ratio.

[4] = system: SHPT patients on maintenance hemodialysis; assay: Phase I/II clinical trial, repeated administration; assay type: in vivo, human; details: for percentage decrease in the serum iPTH concentration: Day 22 (three days after the ninth administration)
Description: Targeting SHPT patients on maintenance hemodialysis, pharmacokinetics, pharmacodynamics and safety upon single or repeated intravenous administration of Compound A1 were examined by conducting a double-blind test using a placebo as a control.
Repeated administration: Based on the clinically effective dose calculated in Reference Example 5, the doses were given in 3 steps, namely, 0.05 mg, 0.1 mg, and 0.2 mg. The trial drug was (intravenously) infused from the venous side of the dialysis circuit before the end of dialysis three times a week for 22 days (total of 9 times) starting from the first day of administration of the trial drug. Here, the trial drug was administered by diluting a required dose taken from the Compound A1 vial formulation prepared as follows with sterilized water for injection, and filling a syringe with the resultant in accordance with the dose to be administered.
Each item was evaluated according to the predetermined evaluation schedule.
A vial formulation encapsulating 1 mg of Compound A1 in terms of a dehydrate, and sodium chloride, disodium hydrogen phosphate dodecahydrate, and sodium dihydrogen phosphate dihydrate as additives in 10 ml of sterilized water for injection

Compound: Cc1c(Cl)cc(S(=O)(=O)[O-])cc1NC(=O)NC[C@H](N)C(=O)O.[Na+] [Compound A1, sodium 3-{[(2S)-2-amino-2-carboxyethyl]carbamoylamino}-5-chloro-4-methylbenzenesulfonate]
- Residual ratio (%) ([1]; pH 1.1, 5° C., 24 hours): 100%
- Residual ratio (%) ([1]; pH 1.1, 5° C., 113 hours): 100%
- Residual ratio (%) ([1]; pH 1.1, 5° C., 161 hours): 100%
- Residual ratio (%) ([1]; pH 2.0, 5° C., 24 hours): 100%
- Residual ratio (%) ([1]; pH 2.0, 5° C., 113 hours): 100%
- Residual ratio (%) ([1]; pH 2.0, 5° C., 161 hours): 100%
- Residual ratio (%) ([1]; pH 3.0, 5° C., 24 hours): 100%
- Residual ratio (%) ([1]; pH 3.0, 5° C., 113 hours): 100%
- Residual ratio (%) ([1]; pH 3.0, 5° C., 161 hours): 100%
- Residual ratio (%) ([1]; pH 4.0, 5° C., 24 hours): 100%
- Residual ratio (%) ([1]; pH 4.0, 5° C., 113 hours): 100%
- Residual ratio (%) ([1]; pH 4.0, 5° C., 161 hours): 100%
- Residual ratio (%) ([1]; pH 5.0, 5° C., 24 hours): 100%
- Residual ratio (%) ([1]; pH 5.0, 5° C., 113 hours): 100%
- Residual ratio (%) ([1]; pH 5.0, 5° C., 161 hours): 100%
- Residual ratio (%) ([1]; pH 6.0, 5° C., 24 hours): 100%
- Residual ratio (%) ([1]; pH 6.0, 5° C., 113 hours): 100%
- Residual ratio (%) ([1]; pH 6.0, 5° C., 161 hours): 100%
- Residual ratio (%) ([1]; pH 7.0, 5° C., 24 hours): 100%
- Residual ratio (%) ([1]; pH 7.0, 5° C., 113 hours): 100%
- Residual ratio (%) ([1]; pH 7.0, 5° C., 161 hours): 100%
- stability of the formulation ([1]; pH of 1.1 to 7.0, 5° C.): stable
- storage stability ([2]; formulations in the pH range of 6.4 to 6.9, 5° C., for 30 months): excellent storage stability
- storage stability ([2]; formulations in the pH range of 6.4 to 6.9, 15° C., for 12 months): excellent storage stability
- storage stability ([2]; formulations in the pH range of 6.4 to 6.9, 25° C. (60% RH), for 6 months): excellent storage stability
- Reaction rate constant at 60° C. ([3]; pH 1.1): 6.3 × 10^−4
- Residual ratio (%) ([3]; pH 1.1, 60° C., 24 hours): 97.8%
- Residual ratio (%) ([3]; pH 1.1, 60° C., 113 hours): 92.7%
- Residual ratio (%) ([3]; pH 1.1, 60° C., 161 hours): 90.2%
- Reaction rate constant at 60° C. ([3]; pH 2.0): 6.5 × 10^−4
- Residual ratio (%) ([3]; pH 2.0, 60° C., 24 hours): 98.1%
- Residual ratio (%) ([3]; pH 2.0, 60° C., 113 hours): 92.4%
- Residual ratio (%) ([3]; pH 2.0, 60° C., 161 hours): 90.1%
- Reaction rate constant at 60° C. ([3]; pH 3.0): 7.5 × 10^−4
- Residual ratio (%) ([3]; pH 3.0, 60° C., 24 hours): 98.3%
- Residual ratio (%) ([3]; pH 3.0, 60° C., 113 hours): 91.5%
- Residual ratio (%) ([3]; pH 3.0, 60° C., 161 hours): 88.9%
- Reaction rate constant at 60° C. ([3]; pH 4.0): 7.6 × 10^−4
- Residual ratio (%) ([3]; pH 4.0, 60° C., 24 hours): 98.1%
- Residual ratio (%) ([3]; pH 4.0, 60° C., 113 hours): 91.5%
- Residual ratio (%) ([3]; pH 4.0, 60° C., 161 hours): 88.5%
- Reaction rate constant at 60° C. ([3]; pH 5.0): 7.9 × 10^−4
- Residual ratio (%) ([3]; pH 5.0, 60° C., 24 hours): 98.0%
- Residual ratio (%) ([3]; pH 5.0, 60° C., 113 hours): 91.3%
- Residual ratio (%) ([3]; pH 5.0, 60° C., 161 hours): 88.0%
- Reaction rate constant at 60° C. ([3]; pH 6.0): 7.8 × 10^−4
- Residual ratio (%) ([3]; pH 6.0, 60° C., 24 hours): 98.1%
- Residual ratio (%) ([3]; pH 6.0, 60° C., 113 hours): 91.5%
- Residual ratio (%) ([3]; pH 6.0, 60° C., 161 hours): 88.3%
- Reaction rate constant at 60° C. ([3]; pH 7.0): 8.2 × 10^−4
- Residual ratio (%) ([3]; pH 7.0, 60° C., 24 hours): 98.2%
- Residual ratio (%) ([3]; pH 7.0, 60° C., 113 hours): 91.0%
- Residual ratio (%) ([3]; pH 7.0, 60° C., 161 hours): 87.8%
- change of reaction rate constant at 60° C. when the pH of the formulation was changed ([3]; pH 1.1 to 7.0): not significantly changed
- percentage decrease in the serum iPTH concentration ([4]; 0.05 mg dose group): 8%
- percentage decrease in the serum iPTH concentration ([4]; 0.1 mg dose group): 25%
- percentage decrease in the serum iPTH concentration ([4]; 0.2 mg dose group): 36%
- accumulating property ([4]; repeated administration): no accumulating property
- elimination by dialysis ([4]; repeated administration): rapidly eliminated by dialysis
- trough concentration before the dialysis following the longest interval ([4]; repeated administration): generally constant
- decrease in the corrected Ca ([4]; repeated administration, 0.05 mg dose group (mild)): observed
- decrease in the corrected Ca ([4]; repeated administration, 0.1 mg dose group): not observed
- decrease in the corrected Ca ([4]; repeated administration, 0.2 mg dose group (mild)): observed
- form present in the plasma ([4]; repeated administration, three times a week for 22 days): mainly as an unchanged substance
